{
  "source": "patent US9561201B2",
  "about": "“Therapeutic compounds” (Fibrotech Therapeutics Pty Ltd, priority 2006, dated 2017)",
  "key": {"[1]": {"system": "Neonatal rat cardiac fibroblasts (NCFs)", "experiment": "NCF TGF-β collagen synthesis, 3H-proline incorporation (Example 6)", "assay_type": "cell-based", "protocol": "Neonatal SD rat cardiac myocytes (NCMs) and fibroblasts (NCFs) were isolated from one-day-old pups with enzymatic digestion as described in detail previously. NCFs were seeded and maintained in high-glucose (25 mmol/L) Dulbecco's modified Eagle's medium (DMEM) (Invitrogen Mount Waverley, Vic, Australia) in the presence of 1% antibiotic/antimycotic (AB/AM) and 10% fetal bovine serum (FBS) (JRH biosciences, Kansas, USA). NCFs were used at passage 2 [31]. Purified NCMs were seeded (1000 cells/mm^2) in 6-well plates and then maintained in serum-free DMEM (Invitrogen, NY, USA) supplemented with insulin and transferrin as described previously (4). Bromodeoxyuridine was included for the first 3 days. 50 mmol/L KCl was added to the medium to prevent spontaneous contraction characteristic of the plated NCMs.\nNCFs collagen synthesis assays were performed as described previously. Briefly, NCFs plated at a density of 50,000 cells/well in 12-well plate and incubated overnight. NCFs were then serum starved for 24 hours in high-glucose DMEM. […]\nFor collagen synthesis, 1 μCi of [^3H]-Proline was added to each well and incubated for further 48 hours before harvest. Cells were harvested by precipitation with 10% TCA on ice for 30 min, before solubilisation with 0.75 mL of 1 mol/L NaOH overnight at 4° C. The samples were then neutralized with 1 mol/L HCl and ^3H level were counted with 10 ml scintillation fluid on a beta-counter to determine [^3H]-proline incorporation."}, "[2]": {"experiment": "Pilot study (toxicity assessment), 2 weeks oral gavage", "assay_type": "in vivo, Sprague-Dawley (SD) rats", "conditions": "for ALT / Body weight / Plasma Creatinine / Plasma Urate: 2 weeks", "protocol": "A total of twenty male Sprague-Dawley (SD) rats weighing 200-250 g were randomised to either FT011 (Fibrotech Therapeutics Pty Ltd, Melbourne, Australia) or Tranilast (Pharm Chemical, Shanghai Lansheng Corporation, China) at the dose of 50 mg, 100 mg, 200 mg and 400 mg/kg/day by gavage twice daily (n=2-3 per group). A control group of animals were gavaged with vehicle (1% carboxy methyl cellulose). The study was conducted for 2 weeks. Animals were bled daily at one, four, and eight hours after oral gavage to measure the plasma concentration. Serum was also collected to assess renal and liver function at the end of the study (plasma creatine and urate, ALT and bilirubin). Rats were individually housed in metabolic cages at the end of the study, habituated for 2 to 3 hours, and urine collected over 24 hours. Animals continued to have free access to tap water and standard laboratory chow during this period. The biochemistry tests performed at the department of pathology, St Vincent's hospital. Major organs including lung, heart, liver, spleen and kidney were harvested and immersed fix with 10% neutral buffered formalin and then embedded paraffin for subsequent light microscope examination."}, "rat mesangial cell line": {"system": "rat mesangial cell line", "experiment": "Effect on mesangial cell appearance (visual monitoring during proline assay)", "assay_type": "cell-based", "conditions": "@ 100 μM"}, "[3]": {"system": "neonatal SD rat cardiac fibroblasts", "experiment": "Angiotensin II-stimulated fibrosis (proline incorporation) in neonatal cardiac fibroblasts (Example 4)", "assay_type": "cell-based", "protocol": "Matrix synthesis may be stimulated by both angiotensin II or transforming growth factor beta (TGF-β).\nNeonatal SD rat cardiac fibroblasts (NCFs) were isolated from one-day-old pups with enzymatic digestion. NCFs were purified by percoll gradient and seeded with DMEM in the present of 1% antibiotic/antimycotic (AB/AM) and 10% fatal bovine serum (FBS). NCFs were then subcultured when they are about 80% confluence. The second passage of NCFs was used for the assays.\nNCFs were seeded at 25,000 cells/well in 12-well plates and incubated at 37° C. and 5% CO2 overnight in DMEM with 1% AB/AM and 10% FBS. Cells were then washed with DMEM and then the media replaced with DMEM/F12 with 1% AB/AM, 0.5% Bovine Serum Albumin (BSA) and Vitamin C, before being incubated at 37° C. and 5% CO2 for 24 hours.\nThe effect of FT011 on TGF-β- or angiotensin II-stimulated fibrosis in the neonatal SD rat cardiac fibroblasts was investigated."}},
  "data": [
    {"smiles": "C#CCOc1ccc(/C=C/C(=O)Nc2ccccc2C(=O)O)cc1OC", "note": "[Analogue 11]", "values": [
      {"measurement": "NCF TGF-β Collagen Synthesis", "setting": "[1]; @ 30 μM", "value": 32, "unit": "% @ 30 μM"},
      {"measurement": "NCF TGF-β Collagen Synthesis", "setting": "[1]; @ 100 μM", "value": 87, "unit": "% @ 100 μM"},
      {"measurement": "ALT", "setting": "[2]; 50 mg/kg/day gavage", "value": "41 ± 1"},
      {"measurement": "Body weight", "setting": "[2]; 50 mg/kg/day gavage", "value": "313 ± 24", "unit": "Gram"},
      {"measurement": "Plasma Creatinine", "setting": "[2]; 50 mg/kg/day gavage", "value": "38 ± 2", "unit": "µmol/L"},
      {"measurement": "Plasma Urate", "setting": "[2]; 50 mg/kg/day gavage", "value": "<0.09", "unit": "mmol/L"},
      {"measurement": "ALT", "setting": "[2]; 100 mg/kg/day gavage", "value": "44 ± 2"},
      {"measurement": "Body weight", "setting": "[2]; 100 mg/kg/day gavage", "value": "308 ± 22", "unit": "Gram"},
      {"measurement": "Plasma Creatinine", "setting": "[2]; 100 mg/kg/day gavage", "value": "39 ± 0.5", "unit": "µmol/L"},
      {"measurement": "Plasma Urate", "setting": "[2]; 100 mg/kg/day gavage", "value": "<0.09", "unit": "mmol/L"},
      {"measurement": "ALT", "setting": "[2]; 200 mg/kg/day gavage", "value": "36 ± 0.5"},
      {"measurement": "Body weight", "setting": "[2]; 200 mg/kg/day gavage", "value": "301 ± 8", "unit": "Gram"},
      {"measurement": "Plasma Creatinine", "setting": "[2]; 200 mg/kg/day gavage", "value": "37 ± 0.6", "unit": "µmol/L"},
      {"measurement": "Plasma Urate", "setting": "[2]; 200 mg/kg/day gavage", "value": "<0.09", "unit": "mmol/L"},
      {"measurement": "ALT", "setting": "[2]; 400 mg/kg/day gavage", "value": "32 ± 4.4"},
      {"measurement": "Body weight", "setting": "[2]; 400 mg/kg/day gavage", "value": "264 ± 29", "unit": "Gram"},
      {"measurement": "Plasma Creatinine", "setting": "[2]; 400 mg/kg/day gavage", "value": "36 ± 3.9", "unit": "µmol/L"},
      {"measurement": "Plasma Urate", "setting": "[2]; 400 mg/kg/day gavage", "value": "<0.09", "unit": "mmol/L"},
      {"measurement": "level of FT011 measured in plasma", "setting": "[2]; following gavage, 50-400 mg/kg/day", "value": "increased in a dose dependent manner"},
      {"measurement": "level of FT011 measured in urine", "setting": "[2]; rats treated with FT011, 24 h urine", "value": "significant level"},
      {"measurement": "Effect on mesangial cell appearance", "setting": "rat mesangial cell line", "value": "stress @"},
      {"measurement": "angiotensin II-stimulated fibrosis (proline incorporation)", "setting": "[3]", "value": "inhibited"}
    ]}
  ]
}
